Test [1] concerns SKBR3 (PI3Kα wild type) cells. Kind of test: CellTiter-Glo 2.0 luminescent cell viability assay, 72 hours, SKBR3 cells. It is filed as cell-based. The following applies: Homo sapiens, SK-BR-3, 72 h, SKBR3 (PI3Kα wild type) cells, CellTiter-Glo, approximately 72 hours; read-out: SKBR3 (WT) Viability IC50. The method in brief:
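Viability measured via CTG luminescence following roughly 72 hours of compound exposure at 37° C. Dosing used a 10 um starting concentration diluted 1:4 over 10 points; percent-of-vehicle data fitted with a variable-slope four-parameter model for IC50.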

Test [2] concerns T47D (PI3Kα H1047R mutant) cells. Kind of test: CellTiter-Glo 2.0 luminescent cell viability assay, 72 hours, T47D cells. It is filed as cell-based. The note with it: T47D (PI3Kα H1047R mutant) cells, CellTiter-Glo, approximately 72 hours, read-out: T47D (H1047R mutant) Viability IC50. In short, it runs like this: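 Viability was measured by CellTiter-Glo 2.0 luminescence after approximately 72 h of compound exposure at 37° C. Plating was 1000 cells per well the day before dosing, with ten 1:4 dilutions from a 10 µM top concentration. Values as percent of vehicle were fitted by variable-slope log(inhibitor) regression to give IC50.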
For orientation: ATP-based viability assays read luminescence as a measure of living cells.

Structures are written as SMILES. Like-named read-outs stand apart in the source and are kept apart here.

IC50 data for 26 molecules are collected here from patent US20260078120A1, “SUBSTITUTED PYRIDOPYRIMIDINONES” (MIRATI THERAPEUTICS, INC., priority 2022, published 2026).

As for `CCc1cc([C@@H](C)Nc2ccccc2C(=O)O)c2nc(N3Cc4ccccc4C3)c(C#N)c(=O)n2c1` [Example 11-328, (R)-2-((1-(3-cyano-7-ethyl-2-(isoindolin-2-yl)-4-oxo-4H-pyrido[1,2-a]pyrimidin-9-yl)ethyl)amino)benzoic acid], the IC50 (as a rule, the concentration that inhibits the measured activity by half) in test [1] was found to be 6.82 µM; in test [2], 1.91 µM.

Regarding `Cc1cc([C@H](C)OC(=O)c2nc(Cl)ccc2N)c2nc(N3CCCCC3)c(C#N)c(=O)n2c1` [Example 11-329, (S)-1-(3-cyano-7-methyl-4-oxo-2-(piperidin-1-yl)-4H-pyrido[1,2-a]pyrimidin-9-yl)ethyl 3-amino-6-chloropicolinate], the IC50 in test [1] is more than 10 µM; in test [2] (Homo sapiens, T47D, 72 h) it was 1.1 µM.

`Cc1cc([C@@H](C)OC(=O)c2nc(Cl)ccc2N)c2nc(N3CCCCC3)c(C#N)c(=O)n2c1` [Example 11-330, (R)-1-(3-cyano-7-methyl-4-oxo-2-(piperidin-1-yl)-4H-pyrido[1,2-a]pyrimidin-9-yl)ethyl 3-amino-6-chloropicolinate]: the half-inhibitory concentration (IC50) in test [1] was more than 10 µM; in test [2] (Homo sapiens, T47D, 72 h), more than 10 µM.

On to `Cc1cc([C@@H](C)Nc2ccc(Cl)nc2C(=O)O)c2nc(N3CCCCC3)c(C#N)c(=O)n2c1` [Example 11-331, (R)-6-chloro-3-((1-(3-cyano-7-methyl-4-oxo-2-(piperidin-1-yl)-4H-pyrido[1,2-a]pyrimidin-9-yl)ethyl)amino)picolinic acid], for which the IC50 in test [1] is more than 10 µM; in test [2] (Homo sapiens, T47D, 72 h), 0.301 µM.

Regarding `Cc1cc(C(C)Nc2ccc(Cl)nc2C(=O)O)c2nc(N3CCCCC3)c(C#N)c(=O)n2c1` (stereo not shown) [Example 11-332, 6-chloro-3-((1-(3-cyano-7-methyl-4-oxo-2-(piperidin-1-yl)-4H-pyrido[1,2-a]pyrimidin-9-yl)ethyl)amino)picolinic acid], the IC50 is 9.81 µM in test [1] and 0.481 µM in test [2] (Homo sapiens, T47D, 72 h).

Take `Cc1cc(C(C)Nc2ccccc2P(C)(=O)O)c2nc(N3Cc4ccccc4C3)cc(=O)n2c1` (stereo not shown) [Example 11-333, (2-((1-(2-(isoindolin-2-yl)-7-methyl-4-oxo-4H-pyrido[1,2-a]pyrimidin-9-yl)ethyl)amino)phenyl)(methyl) phosphinic acid]: the concentration for half-maximal inhibition (IC50) in test [1] is more than 10 µM; in test [2] (Homo sapiens, T47D, 72 h), more than 10 µM.

For `Cc1cc(C(C)Nc2ccccc2C(=O)O)c2nc(N3CCN(c4ccc(C#N)cc4)CC3)cc(=O)n2c1` (stereo not shown) [Example 11-334, 2-((1-(2-(4-(4-cyanophenyl)piperazin-1-yl)-7-methyl-4-oxo-4H-pyrido[1,2-a]pyrimidin-9-yl)ethyl)amino)benzoic acid], the half-maximal inhibitory concentration (IC50) is 1.27 µM in test [1] and 0.113 µM in test [2] (Homo sapiens, T47D, 72 h).

As to `Cc1cc(C(C)Nc2ccccc2C(=O)O)c2nc(N3CCN(c4ccccc4)CC3)cc(=O)n2c1` (stereo not shown) [Example 11-335, 2-((1-(7-methyl-4-oxo-2-(4-phenylpiperazin-1-yl)-4H-pyrido[1,2-a]pyrimidin-9-yl)ethyl)amino)benzoic acid], the IC50 in test [1] was more than 10 µM; in test [2] (Homo sapiens, T47D, 72 h) it was 0.386 µM.

As for `Cc1cc(C(C)Nc2ccccc2C(=O)O)c2nc(N3CCN(C(=O)C4CC4)CC3)cc(=O)n2c1` (stereo not shown) [Example 11-336, 2-((1-(2-(4-(cyclopropanecarbonyl)piperazin-1-yl)-7-methyl-4-oxo-4H-pyrido[1,2-a]pyrimidin-9-yl)ethyl)amino)benzoic acid], the half-inhibitory concentration (IC50) was more than 10 µM in test [1] and 2.74 µM in test [2] (Homo sapiens, T47D, 72 h).

On to `CC(=O)N1CCN(c2cc(=O)n3cc(C)cc(C(C)Nc4ccccc4C(=O)O)c3n2)CC1` (stereo not shown) [Example 11-337, 2-((1-(2-(4-acetylpiperazin-1-yl)-7-methyl-4-oxo-4H-pyrido[1,2-a]pyrimidin-9-yl)ethyl)amino)benzoic acid], for which the IC50 in test [1] was more than 10 µM; in test [2] (Homo sapiens, T47D, 72 h) it was more than 10 µM.

Consider `Cc1cc(C(C)Nc2ccccc2C(=O)O)c2nc(N3Cc4cccc(C#N)c4C3)cc(=O)n2c1` (stereo not shown) [Example 11-338, 2-((1-(2-(4-cyanoisoindolin-2-yl)-7-methyl-4-oxo-4H-pyrido[1,2-a]pyrimidin-9-yl)ethyl)amino)benzoic acid], for which the half-inhibitory concentration (IC50) in test [1] was more than 10 µM; in test [2] (Homo sapiens, T47D, 72 h), 2.42 µM.

For `Cc1cc(C(C)Nc2ccccc2C(=O)O)c2nc(Nc3cccc(C#N)c3)cc(=O)n2c1` (stereo not shown) [Example 11-339, 2-((1-(2-((3-cyanophenyl)amino)-7-methyl-4-oxo-4H-pyrido[1,2-a]pyrimidin-9-yl)ethyl)amino)benzoic acid], the 50% inhibitory concentration (IC50) in test [1] was more than 10 µM; in test [2] (Homo sapiens, T47D, 72 h), more than 10 µM.

In the case of `Cc1cc(C(C)Nc2ccccc2C(=O)O)c2nc(Oc3cccc(C#N)c3)cc(=O)n2c1` (stereo not shown) [Example 11-340, 2-((1-(2-(3-cyanophenoxy)-7-methyl-4-oxo-4H-pyrido[1,2-a]pyrimidin-9-yl)ethyl)amino)benzoic acid], the half-inhibitory concentration (IC50) in test [1] was more than 10 µM; in test [2] (Homo sapiens, T47D, 72 h), more than 10 µM.

Turning to `Cc1cc(C(C)Nc2ccccc2C(=O)O)c2nc(Oc3ccccc3)cc(=O)n2c1` (stereo not shown) [Example 11-341, 2-((1-(7-methyl-4-oxo-2-phenoxy-4H-pyrido[1,2-a]pyrimidin-9-yl)ethyl)amino)benzoic acid], the IC50 in test [1] was more than 10 µM; in test [2] (Homo sapiens, T47D, 72 h), more than 10 µM.

`Cc1cc(C(C)Nc2ccccc2C(=O)O)c2nc(N3CCCC(C)(O)C3)cc(=O)n2c1` (stereo not shown) [Example 11-342, 2-((1-(2-(3-hydroxy-3-methylpiperidin-1-yl)-7-methyl-4-oxo-4H-pyrido[1,2-a]pyrimidin-9-yl)ethyl)amino)benzoic acid]: the IC50 in test [1] was more than 10 µM; in test [2] (Homo sapiens, T47D, 72 h), 4.47 µM.

Consider `Cc1cc(C(C)Nc2ccccc2C(=O)O)c2nc(N3CCCC(O)C3)cc(=O)n2c1` (stereo not shown) [Example 11-343, 2-((1-(2-(3-hydroxypiperidin-1-yl)-7-methyl-4-oxo-4H-pyrido[1,2-a]pyrimidin-9-yl)ethyl)amino)benzoic acid], for which the IC50 was more than 10 µM in test [1] and more than 10 µM in test [2] (Homo sapiens, T47D, 72 h).

Turning to `Cc1cc(C(C)Nc2ccccc2C(=O)O)c2nc(N3C4CCC3CC4)cc(=O)n2c1` (stereo not shown) [Example 11-344, 2-((1-(2-(7-azabicyclo[2.2.1]heptan-7-yl)-7-methyl-4-oxo-4H-pyrido[1,2-a]pyrimidin-9-yl)ethyl)amino)benzoic acid], the IC50 in test [1] is more than 10 µM; in test [2] (Homo sapiens, T47D, 72 h), 2.15 µM.

Regarding `Cc1cc(C(=O)N2CCCC2C(=O)O)c2nc(N3CCCCC3)cc(=O)n2c1` (stereo not shown) [Example 11-345, (7-methyl-4-oxo-2-(piperidin-1-yl)-4H-pyrido[1,2-a]pyrimidin-9-carbonyl)proline], the IC50 in test [1] is more than 10 µM; in test [2] (Homo sapiens, T47D, 72 h), more than 10 µM.

As to `Cc1cc(C(=O)N2CCCCC2C(=O)O)c2nc(N3CCCCC3)cc(=O)n2c1` (stereo not shown) [Example 11-346, 1-(7-methyl-4-oxo-2-(piperidin-1-yl)-4H-pyrido[1,2-a]pyrimidine-9-carbonyl)piperidine-2-carboxylic acid], the IC50 is more than 10 µM in test [1] and more than 10 µM in test [2] (Homo sapiens, T47D, 72 h).

`Cc1cc(N2CCC(C(=O)O)CC2)c2nc(N3CCCCC3)cc(=O)n2c1` [Example 11-347, 1-(7-methyl-4-oxo-2-(piperidin-1-yl)-4H-pyrido[1,2-a]pyrimidin-9-yl)piperidine-4-carboxylic acid]: the concentration for half-maximal inhibition (IC50) in test [1] was more than 10 µM; in test [2] (Homo sapiens, T47D, 72 h), more than 10 µM.

As to `Cc1cc(C(C)Nc2cnc(Cl)cc2C(=O)O)c2nc(N3Cc4ccccc4C3)c(C)c(=O)n2c1` (stereo not shown) [Example 11-348, 2-chloro-5-((1-(2-(isoindolin-2-yl)-3,7-dimethyl-4-oxo-4H-pyrido[1,2-a]pyrimidin-9-yl)ethyl)amino)isonicotinic acid], the half-maximal inhibitory concentration (IC50) is more than 10 µM in test [1] and 5.49 µM in test [2] (Homo sapiens, T47D, 72 h).

Consider `Cc1cc(C(C)Nc2ccccc2C(=O)O)c2nc(N3Cc4ccccc4C3)c(C#N)c(=O)n2c1` (stereo not shown) [Example 11-349, 2-((1-(3-cyano-2-(isoindolin-2-yl)-7-methyl-4-oxo-4H-pyrido[1,2-a]pyrimidin-9-yl)ethyl)amino)benzoic acid], for which the IC50 in test [1] is more than 10 µM; in test [2] (Homo sapiens, T47D, 72 h) it was 0.332 µM.

Regarding `Cc1cc(C(C)Nc2ccncc2C(=O)O)c2nc(N3Cc4ccccc4C3)c(C)c(=O)n2c1` (stereo not shown) [Example 11-350, 4-((1-(2-(isoindolin-2-yl)-3,7-dimethyl-4-oxo-4H-pyrido[1,2-a]pyrimidin-9-yl)ethyl)amino)nicotinic acid], the half-maximal inhibitory concentration (IC50) in test [1] is more than 10 µM; in test [2] (Homo sapiens, T47D, 72 h), more than 10 µM.

Turning to `Cc1cc([C@@H](C)Nc2ccc(F)nc2C(=O)O)c2nc(N3Cc4ccccc4C3)c(C)c(=O)n2c1` [Example 11-351, (R)-6-fluoro-3-((1-(2-(isoindolin-2-yl)-3,7-dimethyl-4-oxo-4H-pyrido[1,2-a]pyrimidin-9-yl)ethyl)amino)picolinic acid], the IC50 is more than 10 µM in test [1] and 0.946 µM in test [2].

As to `Cc1cc(C(C)Nc2ccc(F)nc2C(=O)O)c2nc(N3Cc4ccccc4C3)c(C)c(=O)n2c1` (stereo not shown) [Example 11-352, 6-fluoro-3-((1-(2-(isoindolin-2-yl)-3,7-dimethyl-4-oxo-4H-pyrido[1,2-a]pyrimidin-9-yl)ethyl)amino)picolinic acid], the IC50 in test [1] was more than 10 µM; in test [2] (Homo sapiens, T47D, 72 h), 0.0747 µM.

As for `Cc1cc([C@H](C)Nc2ccc(C(F)(F)F)nc2C(=O)O)c2nc(N3Cc4ccccc4C3)c(C)c(=O)n2c1` [Example 11-353, (S)-3-((1-(2-(isoindolin-2-yl)-3,7-dimethyl-4-oxo-4H-pyrido[1,2-a]pyrimidin-9-yl)ethyl)amino)-6-(trifluoromethyl) picolinic acid], the half-inhibitory concentration (IC50) in test [1] was more than 10 µM; in test [2] (Homo sapiens, T47D, 72 h), 6.29 µM.
